Experimental data as given in US10392348B2, “2-oxo-3,4-dihydroquinoline compounds as plant growth regulators” (Syngenta Participations AG, priority 2015, dated 2019).
Read-outs that look alike come from different tables or passages of the source.

Test system: soybean plants (variety S20-G7)
Assay: Reduced plant water use in soybean (foliar spray, repeated weighing of pots)
Type: in vivo
Settings: Glycine max, foliar, Table B1, sprayed at 500 μM, vs negative control
Experimental: Compounds were tested for their effect on reducing plant water use as follows. Each compound was dissolved in a blank emulsifiable concentrate (EC) formulation that was then diluted to the desired concentration with water containing additional surfactant (EXTRAVON 1 g/20 L). The compounds were applied by foliar spray to 12 day old soybean plants (variety S20-G7) grown in controlled environment plant growth chambers. Plant water use during the day was assessed by repeated weighing of the pots in which the plants were grown before and after application of the compounds at the indicated times (expressed in days after application (DAA)). The water use data before application was used to correct any differences in water use arising due to non-treatment effects (e.g. due to differences in plant size). The untransformed water use values were subjected to an analysis of covariance, fitting the effect of treatment and using the baseline water use 1 day before application as a covariate.
The results are expressed compared to negative control treatment (diluted EC formulation without active ingredient but with EXTRAVON 1 g/20 L).
Application of the chemicals (0 DAA) takes place approximately between 08:00 and 09:30 a.m. WU is measured within day time (chamber light is on 06:00 to 20:00) at these timepoints: 0 DAA a.m. (10:30-12:50), 0 DAA p.m. (14:00-19:50), 1 DAA a.m. (7:30-12:50), 1 DAA p.m. (14:00-19:50), 2 DAA a.m. (07:30-12:50) and 2 DAA p.m. (14:00-19:50). The cumulative total WU (0-2.5 DAA) is calculated by summing the WU data mentioned above.

[1] = 0 h, 0 DAA a.m. (10:30-12:50), read-out: % WU 0 DAA AM
[2] = 24 h, 1 DAA a.m. (7:30-12:50), read-out: % WU 1DAA AM
[3] = 24 h, 1 DAA p.m. (14:00-19:50), read-out: % WU 1DAA PM
[4] = 48 h, 2 DAA a.m. (07:30-12:50), read-out: % WU 2 DAA AM
[5] = 48 h, 2 DAA p.m. (14:00-19:50), read-out: % WU 2 DAA PM
[6] = 60 h, cumulative total WU (0-2.5 DAA), read-out: % WU Total 0 to 2.5 DAA

Row | Compound | change in vivo at 500 µM [1] | change in vivo at 500 µM [2] | change in vivo at 500 µM [3] | change in vivo at 500 µM [4] | change in vivo at 500 µM [5] | change in vivo at 500 µM [6]
1 | C=CCN1C(=O)CCc2cc(CNS(=O)(=O)c3ccccc3)ccc21 [Compound 5.001, N-[(1-allyl-2-oxo-3,4-dihydroquinolin-6-yl)methyl]benzenesulfonamide] | -15.1% | -18.7% | -17.4% | -16.5% | -15.6% | -17.1%
2 | C=CCN1C(=O)CCc2cc(CNS(=O)(=O)c3ccc(F)cc3F)ccc21 [Compound 5.006, N-[(1-allyl-2-oxo-3,4-dihydroquinolin-6-yl)methyl]-2,4-difluoro-benzenesulfonamide] | -13.6% | -12.5% | -11.5% | -9.7% | -9.9% | -11.4%
3 | CCCn1c(=O)ccc2cc(CNS(=O)(=O)c3ccc(F)cc3F)ccc21 [Compound 7.006, 2,4-difluoro-N-[(2-oxo-1-propyl-6-quinolyl)methyl]benzenesulfonamide] | -14.6% | -6.7% | -4.2% | -4.2% | 0% | -6.1%
4 | CCCn1c(=O)ccc2cc(CNS(=O)(=O)c3ccc(F)cc3)ccc21 [Compound 7.009, 4-fluoro-N-[(2-oxo-1-propyl-6-quinolyl)methyl]benzenesulfonamide] | -8.1% | -3.6% | -3.5% | -4% | -1.7% | -4.1%
5 | O=C1CCc2cc(CNS(=O)(=O)c3ccccc3)ccc2N1CC1CC1 [Compound 10.001, N-[[1-(cyclopropylmethyl)-2-oxo-3,4-dihydroquinolin-6-yl]methyl]benzenesulfonamide] | -25.2% | -23.8% | -22.7% | -14.9% | -14.7% | -20.8%
6 | O=C1CCc2cc(CNS(=O)(=O)c3ccc(F)cc3F)ccc2N1CC1CC1 [Compound 10.006, N-[[1-(cyclopropylmethyl)-2-oxo-3,4-dihydroquinolin-6-yl]methyl]-2,4-difluoro-benzenesulfonamide] | -22.4% | -18.5% | -18.2% | -16.9% | -17.8% | -18.6%
7 | O=C1CCc2cc(CNS(=O)(=O)c3ccccc3)ccc2N1CC(F)(F)F [Compound 11.001, N-[[2-oxo-1-(2,2,2-trifluoroethyl)-3,4-dihydroquinolin-6-yl]methyl]benzenesulfonamide] | -20.8% | -26.2% | -27.6% | -26.9% | -26.9% | -26.1%
8 | O=C1CCc2cc(CNS(=O)(=O)c3ccc(F)cc3F)ccc2N1CC(F)(F)F [Compound 11.006, 2,4-difluoro-N-[[2-oxo-1-(2,2,2-trifluoroethyl)-3,4-dihydroquinolin-6-yl]methyl]benzenesulfonamide] | -13% | -15.3% | -15.7% | -16.4% | -16.5% | -15.8%
9 | COCCN1C(=O)CCc2cc(CNS(=O)(=O)c3ccccc3)ccc21 [Compound 13.001, N-[[1-(2-methoxyethyl)-2-oxo-3,4-dihydroquinolin-6-yl]methyl]benzenesulfonamide] | -15.1% | -11% | -11% | -8.9% | -9.2% | -11.1%
10 | COCCN1C(=O)CCc2cc(CNS(=O)(=O)c3ccc(F)cc3F)ccc21 [Compound 13.006, 2,4-difluoro-N-[[1-(2-methoxyethyl)-2-oxo-3,4-dihydroquinolin-6-yl]methyl]benzenesulfonamide] | -9.8% | -9.3% | -10.1% | -9.6% | -10.3% | -10.1%
11 | CCN1C(=O)CC(C)c2cc(CNS(=O)(=O)c3ccccc3)cc(C)c21 (stereo not drawn) [Compound 16.001, N-[(1-ethyl-4,8-dimethyl-2-oxo-3,4-dihydroquinolin-6-yl)methyl]benzenesulfonamide] | -39% | -49% | -48.1% | -45.7% | -44.5% | -46%
12 | CCCN1C(=O)CCc2cc(CNS(=O)(=O)c3ccccc3)cc(F)c21 [Compound 17.001, N-[(8-fluoro-2-oxo-1-propyl-3,4-dihydroquinolin-6-yl)methyl]benzenesulfonamide] | -41.6% | -38% | -36.3% | -27.1% | -26.3% | -34.7%
13 | CCN1C(=O)CC(C)c2cc(CNS(=O)(=O)c3ccccc3)cc(F)c21 (stereo not drawn) [Compound 22.001, N-[(1-ethyl-8-fluoro-4-methyl-2-oxo-3,4-dihydroquinolin-6-yl)methyl]benzenesulfonamide] | -46.1% | -55.8% | -53% | -55.1% | -50.1% | -52.1%
14 | CC1CC(=O)N(CC(F)(F)F)c2ccc(CNS(=O)(=O)c3ccccc3)cc21 (stereo not drawn) [Compound 23.001, N-[[4-methyl-2-oxo-1-(2,2,2-trifluoroethyl)-3,4-dihydroquinolin-6-yl]methyl]benzenesulfonamide] | -31.3% | -39.7% | -40.8% | -35.9% | -37.3% | -37.7%
15 | CC1CC(=O)N(CC2CC2)c2ccc(CNS(=O)(=O)c3ccccc3)cc21 (stereo not drawn) [Compound 24.001, N-[[1-(cyclopropylmethyl)-4-methyl-2-oxo-3,4-dihydroquinolin-6-yl]methyl]benzenesulfonamide] | -35.3% | -42.8% | -42.8% | -39.9% | -38.3% | -40.6%
16 | C=CCN1C(=O)CC(C)c2cc(CNS(=O)(=O)c3ccccc3)ccc21 (stereo not drawn) [Compound 25.001, N-[(1-allyl-4-methyl-2-oxo-3,4-dihydroquinolin-6-yl)methyl]benzenesulfonamide] | -28.2% | -41% | -39.6% | -38.1% | -36.7% | -37.9%
